The values that follow are results of earlier work, collected in US20240024337A1, “INTERACTION OF SARS-COV-2 PROTEINS WITH MOLECULAR AND […] […] HOST CELLS AND FORMULATIONS TO TREAT COVID-19” (AKSEERA PHARMA CORP., priority 2020, published 2024).

This data set has as its system HT22 hippocampal neurons. The note with it: 5 μM; oxygen-glucose deprivation.

Consider `C=C(C)[C@@H]1CCC(C)=C[C@H]1c1c(O)cc(CCCCC)cc1O` [Cannabidiol, 2-[(1R,6R)-3-Methyl-6-(1-methylethenyl)-2-cyclohexen-1-yl]-5-pentyl-1,3-benzenediol], for which the “apoptosis and oxidative stress” value is recorded as “significantly attenuated”.
